For one data set, the target named is T1, ABCG2 (Homo sapiens, UniProt Q9UNQ0).
T1 sequence (Q9UNQ0 whole entry): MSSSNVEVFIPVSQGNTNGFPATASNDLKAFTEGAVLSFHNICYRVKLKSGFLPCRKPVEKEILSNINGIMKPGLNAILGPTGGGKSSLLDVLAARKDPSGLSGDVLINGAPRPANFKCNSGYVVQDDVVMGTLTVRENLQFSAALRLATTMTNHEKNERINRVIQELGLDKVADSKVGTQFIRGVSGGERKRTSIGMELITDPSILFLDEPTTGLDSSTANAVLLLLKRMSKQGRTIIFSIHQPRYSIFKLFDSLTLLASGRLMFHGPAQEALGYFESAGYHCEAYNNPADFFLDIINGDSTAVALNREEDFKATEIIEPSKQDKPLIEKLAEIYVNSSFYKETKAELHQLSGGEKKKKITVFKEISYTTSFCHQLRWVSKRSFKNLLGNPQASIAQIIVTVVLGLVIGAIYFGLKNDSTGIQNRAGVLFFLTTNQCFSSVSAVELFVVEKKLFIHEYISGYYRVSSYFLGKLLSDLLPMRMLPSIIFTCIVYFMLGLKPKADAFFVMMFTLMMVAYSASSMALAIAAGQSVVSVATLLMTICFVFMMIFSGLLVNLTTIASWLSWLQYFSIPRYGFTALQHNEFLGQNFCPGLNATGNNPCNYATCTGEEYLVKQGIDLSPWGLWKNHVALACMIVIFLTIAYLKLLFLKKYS
Kind of data set: (§1) Inhibition of ABCG2 (unknown origin)-mediated mitoxantrone efflux at 5 uM relative to control. The conditions noted are these: probe mitoxantrone.

Data set [1] has as its target T2, Broad substrate specificity ATP-binding cassette transporter ABCG2 (Homo sapiens, UniProt Q9UNQ0).
T2 sequence (Q9UNQ0 whole entry): T1 sequence (Q9UNQ0 whole entry)
Kind of data set: Inhibition of ABCG2 (unknown origin)-mediated mitoxantrone efflux.

Data set [2] concerns the target T2, Broad substrate specificity ATP-binding cassette transporter ABCG2. Described as §1. The conditions noted are these: 5 µM.
For data set [3] the target is unchanged. Kind of data set: Inhibition of ABCG2 (unknown origin) expressed in HEK293 cells assessed as reduction in mitoxantrone accumulation incubated for 30 mins by flow cytometric method. Format: cell-based. (A flow cytometer gives signals particle by particle.)

Each structure is given as a SMILES string. Where “and” joins values, the source holds several entries; their conditions need not be identical. Identical values can stand only once.

With `O=C1CCCc2c1c1c(n2CCc2ccccc2)-c2ccccc2C1=O`, at ABCG2, the inhibition (commonly the change of the read-out against control, counted positive when it falls) at 5 µM was 100%. For the same compound, in data set [1], the EC50 (usually the concentration that produces a half-maximal response) stood at 430 nM.
The like results for `O=C1CCCc2c1c1c(n2CCCc2ccccc2)-c2ccccc2C1=O` were, in that order, 83% and 790 nM.
Consider `O=C1CC(c2ccccc2)Cc2c1c1c(n2Cc2ccccc2)-c2ccccc2C1=O` (stereo not drawn), for which the inhibition at 5 µM against ABCG2 stood at 68%. For the same compound, it took 960 nM to reach a half-maximal effect in data set [1] (EC50).
`COc1ccc2[nH]cc(CCNC(=O)c3cc(=O)c4c(OCc5ccc(Br)cc5)cccc4o3)c2c1`: the inhibition at 5 µM on ABCG2 amounted to 98%.
Same read-out and setting: as for `CN(CCc1cn(C)c2ccccc12)C(=O)c1cc(=O)c2c(OCc3ccc(Br)cc3)cccc2o1`, the figure is 88%; as for `COc1ccc2c(CCNC(=O)c3cc(=O)c4c(OCc5ccc(Br)cc5)cccc4o3)c[nH]c2c1`, 97%; as for `Cn1cc(CCNC(=O)c2cc(=O)c3c(OCc4ccc(Br)cc4)cccc3o2)c2ccccc21`, 85%.
Same read-out and setting: next, `CN(CCc1c[nH]c2ccccc12)C(=O)c1cc(=O)c2c(OCc3ccc(Br)cc3)cccc2o1`: 105%; `COc1ccc2[nH]cc(CCN(C)C(=O)c3cc(=O)c4c(OCc5ccc(Br)cc5)cccc4o3)c2c1`: 101%; `O=C(NCc1cn(CCc2c[nH]c3ccccc23)nn1)c1cc(=O)c2c(OCc3ccc(Br)cc3)cccc2o1`: 87%.
Take `COc1ccc2[nH]cc(CCN(C)Cc3cc(=O)c4c(OCc5ccc(Br)cc5)cccc4o3)c2c1`: in data set [2], the “inhibition (INH)” value was 46% and 75%. Also, the EC50 in data set [1] worked out at 1800 nM.
For `CC1CC(=O)c2c3c(n(CCc4ccccc4)c2C1)-c1ccccc1C3=O` (stereo not drawn), the inhibition at 5 µM against ABCG2 worked out at 100%. In data set [1], this compound showed an EC50 of 230 nM.
The like results for `O=C1CC(c2ccccc2)Cc2c1c1c(n2CCc2ccccc2)-c2ccccc2C1=O` (stereo not drawn) were, in that order, 83% and 490 nM.
The like results for `COc1cccc(CCn2c3c(c4c2-c2ccccc2C4=O)C(=O)CCC3)c1` were, in that order, 78% and 310 nM.
The corresponding values for `CC(C)n1c2c(c3c1-c1ccccc1C3=O)C(=O)C(Cc1ccccc1)(Cc1ccccc1)CC2` are 90% and 610 nM.
Regarding `O=c1cc(-c2ccccc2)c(=O)c2c1c1c(=O)c3ccccc3c1n2CCc1ccccc1`, the inhibition at 5 µM against ABCG2 is 128%. Also, it took 430 nM to reach a half-maximal effect in data set [1] (EC50).
For `C=CCOc1ccc(CNCCc2c[nH]c3ccccc23)cc1OCC`, the EC50 in data set [3] is 130 nM.
For the compound `O=c1cc(-c2ccccc2)c(=O)c2c1c1c(=O)c3ccccc3c1n2Cc1ccccc1`, at ABCG2, the inhibition at 5 µM amounted to 41%.
As to `Cc1cc(=O)c2c3c(=O)c4ccccc4c3n(CCc3ccccc3)c2c1=O`, the inhibition at 5 µM at ABCG2 was determined as 99%. Further, the EC50 in data set [1] was found to be 840 nM.
With `O=c1ccc(=O)c2c1c1c(=O)c3ccccc3c1n2CCCc1ccccc1`, the inhibition at 5 µM at ABCG2 came out at 33%.
On to `O=c1ccc(=O)c2c1c1c(=O)c3ccccc3c1n2CCc1ccccc1`, for which the inhibition at 5 µM on ABCG2 is 18%.
On to `COc1ccc2c3c([nH]c2c1)[C@H](C=C(C)C)N1C(=O)[C@@H]2CCCN2C(=O)[C@@H]1C3` [FUMITREMORGIN], for which the inhibition at 5 µM on ABCG2 came to 100%. The EC50 in data set [1] amounted to 2000 nM.

(Values after ChEMBL document CHEMBL5365392, “Inhibitors of ABCG2-mediated multidrug resistance: Lead generation through computer-aided drug design” (Eur J Med Chem, 2023).)
